# In article PMC9653966, “Simultaneous Degradation Study of Isomers in Human Plasma by HPLC-MS/MS and Application of LEDA Algorithm for Their Characterization” (International Journal of Molecular Sciences, 2022):
# Like-named read-outs stand apart in the source and are kept apart here.
# Experiments:
# [1] = Chemical stability test in human plasma (enzymatic hydrolysis, HPLC-MS/MS); type: in vitro ADME; conditions: for LEDA195–221 k ± 2SD (degradation rate): LEDA195–221 matrix (Table S4); for behaviour towards plasma enzymes (hydrolysis or stable) / half-life at 1 µM: human plasma; for behaviour towards plasma enzymes (hydrolysis or stable): all sample sets (pure isomer and mixture), up to 120 min at 37 °C; for half-life at 1 µM: human
# Method: The present investigation was carried out to evaluate the variation of hydrolytic activity of the human plasma enzymatic system when two potential substrates were simultaneously present. […] Therefore, the human plasma sample solutions, prepared with a mixture of isomers, presented both a substrate and a potential interference, which could influence the enzyme functionality. To correctly monitor this process, it must be possible to distinguish each isomer present in the sample, quantify it with the proper calibration curve and plot its degradation profile. The LEDA algorithm was used to support this investigation and to test its quali-quantitative ability in a complex matrix of human plasma samples. The experimental plan involved the analysis of three series of human plasma samples for each couple of isomers: two series of samples were added to a pure isomer, to check the activity of the plasma enzyme system without interferences, and the last series of samples were spiked with the equimolar mixture of isomers. The series of samples were prepared, as described in Section 4.6 and analyzed with the proper HPLC-MS/MS method. The acquired data were processed with the conventional quantitative method for the series containing the single isomers, and with the LEDA approach for the samples spiked with the mixture of isomers. The samples containing a single isomer were worked out by the integration of quantitative Pi signal and the estimation of PAR value by dividing with IS abundance, and quantitative determination of the analyte in the sample was obtained by using the proper calibration curve. In contrast, in the samples spiking with the mixture of isomers, each proposed LEDA matrix recognized the relative concentration of the isomers present in the sample. Therefore, their abundance in the precursor ion signal (or Ri signal) were assigned, each PAR value calculated by dividing with the IS abundance, and quantitative determination of the analytes in the sample were performed by using the respective precursor ion calibration curve. In Figure 6, an example of the degradation plots of the mixtures of the ELF94 and ELF96 isomers is shown, while all the degradation profiles are reported in the Supplementary Material (Figures S20–S25).
# Each sample was prepared by adding 10 µL of proper spiked solution to 100 µL of human plasma matrix in a 1.5 mL microcentrifuge tube. The obtained solution corresponds to 1 μM of analyte that undergo degradation study. Each set of samples was prepared in triplicate and incubated for four different times: 0, 30, 60, and 120 min at 37 °C. Therefore, each stability panel of studied analyte was represented by a batch of 12 samples (4 incubation times, 3 replicates). After the incubation, 300 µL of IS solution was added to the sample and then centrifuged (room temperature for 5 min at 800× g). Then, the supernatant was transferred to autosampler vials, dried under a gentle stream of nitrogen and dissolved in 1.0 mL of 10 mM of formic acid in mQ water:acetonitrile 80:20 solution [23, 24, 25, 27, 28, 29, 30]. Each sample batch included the blank samples of human plasma matrix, prepared as described above, with the addition only of the IS solution. Thus, the analysis of the blank samples can check any interference in the analyte MRM signals due to the matrix components. Three sets of six replicates for each analyte were prepared to evaluate the matrix effect (ME) and the analyte recovery (RE) of the proposed method. The same evaluation was extended to the IS to verify its reliability as a quantitative reference. Set A was prepared by mixing 10 µL of spiked solution with 300 µL of IS solution. Set B was obtained by mixing 100 µL of plasma with 300 µL of acetonitrile and, after centrifugation and separation of the supernatant, by adding 10 µL of spiked solution to each analyte or 300 µL of IS solution. […]
# [2] = set-up: method as in PMID 27882889, PMID 29536775, PMID 35753165, PMID 30947123; conditions: check of hydrolytic activity of the plasma pool; own degradation plot comparable to literature value; cited from earlier work
# [3] = human plasma spiked with equimolar mixture of the isomer pair, 1 μM each, 37 °C, LEDA195–221 matrix
# [4] = human plasma spiked with isomers mixture
# [5] = human plasma spiked with isomers mixture, LEDAall matrix (Table S4)
# [6] = human plasma spiked with the pure isomer, 1 μM, 37 °C, 0-120 min, conventional quantitative processing
# [7] = human plasma spiked with equimolar mixture of the isomer pair, 1 μM each, 37 °C, LEDA195–221 matrix, read-out: Mix t1/2 ± 2SD
# [8] = human plasma spiked with isomers mixture, LEDAall matrix (Table S4), read-out: LEDAall t1/2 ± 2SD
# [9] = human plasma spiked with the pure isomer, 1 μM, 37 °C, 0-120 min, conventional quantitative processing, read-out: Pure Isomer t1/2 ± 2SD
SMILES,"Mix k ± 2SD (degradation rate) [1, 3]","LEDA195–221 k ± 2SD (degradation rate) [1, 4]","LEDAall k ± 2SD (degradation rate) [1, 5]","Pure Isomer k ± 2SD (degradation rate) [1, 6]",behaviour towards plasma enzymes (hydrolysis or stable) [1],"half-life at 1 µM [1, 7] [min]","half-life at 1 µM [1, 8] [min]","half-life at 1 µM [1, 9] [min]",t1/2 of the reference compound in human plasma [2] [min]
COc1cc(/C=C/C(=O)OCCCN(C)CCCCCCOC(=O)c2cc(OC)c(OC)c(OC)c2)cc(OC)c1OC [ELF94],−0.023 ± 0.005 ln(μM)/min,−0.023 ± 0.005 ln(M)/min,−0.023 ± 0.003 ln(M)/min,−0.014 ± 0.001 ln(μM)/min,hydrolysis,34 ± 14,34 ± 15,49 ± 18,–
COc1cc(/C=C/C(=O)OCCCCCCN(C)CCCOC(=O)c2cc(OC)c(OC)c(OC)c2)cc(OC)c1OC [ELF96],<0.006 ln(μM)/min,< 0.006 ln(M)/min,< 0.006 ln(M)/min,<0.006 ln(μM)/min,remained constant,> 120,> 120,> 120,–
COc1cc(/C=C/C(=O)OCCCN(C)CCCCCOC(=O)c2cc(OC)c(OC)c(OC)c2)cc(OC)c1OC [FRA76],−0.019 ± 0.003 ln(μM)/min,−0.019 ± 0.003 ln(M)/min,−0.019 ± 0.005 ln(M)/min,−0.017 ± 0.001 ln(μM)/min,hydrolysis,32 ± 18,32 ± 19,43 ± 16,–
COc1cc(/C=C/C(=O)OCCCCCN(C)CCCOC(=O)c2cc(OC)c(OC)c(OC)c2)cc(OC)c1OC [GDE5],<0.006 ln(μM)/min,< 0.006 ln(M)/min,< 0.006 ln(M)/min,<0.006 ln(μM)/min,remained constant,> 120,> 120,> 120,–
"CCOC(=O)C(C)c1cccc(C(=O)c2ccccc2)c1 (stereo not drawn) [KEE, Ketoprofen ethyl ester]",–,–,–,–,–,–,–,–,≤ 120
